The test system of experiment [1] is rArU (AU homopolynucleotide) (RNA, polymer) A/U. In words: UV thermal melting at 260 nm. The conditions noted are these: Na+ (sodium cacodylate, I = 0.05 mol dm^-3); sodium cacodylate buffer pH 7.0; r = [compound]/[polynucleotide] = 0.1; per base.
For experiment [2] the test system is unchanged. Kind of experiment: fluorescence titration, Scatchard equation. The following applies: Na+ (sodium cacodylate, I = 0.05 mol dm^-3); sodium cacodylate buffer pH 7.0, 25 °C; RNA concentration as phosphates; per base.

Two compounds from article PMC10889688 (2024) can be followed below.

SMILES strings stand for the structures.

For orientation: ΔTm means the shift of the melting midpoint relative to a reference.

As to `CN(C)CCCNc1ccc2cc3cc(C#N)c4nc5ccccc5n4c3nc2c1`, the ΔTm in experiment [1] worked out at 1.1 ± 0.5 °C. The same compound displayed a logKa in experiment [2] of 8.6.

`N#Cc1cc2cc3ccc(N4CCNCC4)cc3nc2n2c1nc1ccccc12`: the thermal shift (ΔTm) in experiment [1] stood at 4.9 ± 0.5 °C. Besides, in experiment [2], the logKa is reported as 7.9.
